Source: patent US6420430B1, “Use of inhibitors of the sodium-hydrogen exchanger for preparing a medicament for preventing age-related disorders, and for prolonging life” (Aventis Pharma Deutschland GmbH, priority 1998, dated 2002)
Entries after “also recorded” stand apart in the source; their conditions may differ.

Tests used:
hypertensive rats = hypertensive rats only; Circulation 1997; 96: 3164-3172; cited from earlier work
[1] = system: normotensive Wistar-Kyoto rats (WKY rats); experiment: Life-long treatment of normotensive WKY rats with cariporide via the feed: lifespan, cumulative survival rate, onset of age-related cancer; assay type: in vivo, rat
Excerpt: The effect of a life-long treatment of young normotensive Wistar-Kyoto rats (WKY rats) with the sodium-hydrogen exchanger (“NHE”) inhibitor cariporide was investigated. In addition to the primary end point, the lifespan, surrogate parameters were studied and measured, for example the hypertrophy of the left ventricle of the heart, heart function, metabolism and endothelial function. In addition, organs, such as heart, kidneys, skeletal muscles and eyes, were examined histomorphologically.
Ninety one-month-old WKY rats were randomized into two groups of placebo-treated (n=45) and cariporide-treated (n=45) rats. Cariporide was administered via the feed (active compound content 0.3%).
Male WKY rats were purchased from Møllegrad Denmark. The animals (3 per cage) were kept under standardized conditions with respect to temperature, atmospheric humidity and light. The rats had free access to a standard diet (Altromin® maintenance diet 1320, sodium content 0.2%) and received drinking water ad libitum. All experiments were carried out in accordance with the German Law on the Protection of Animals.
Ninety one-month-old animals were randomized into two groups of in each case 45 animals. After randomization, placebo and cariporide were administered to the rats via the drinking water and the feed, respectively, a proportion of 0.3% of the feed ensuring complete blockage of the NHE for 24 hours.
At intervals of 3 months, the body weight was determined and the blood pressure was measured using the tail plethysmography method. Events of death were registered after they had occurred.
All data are stated as mean±standard deviations. The survival data were analyzed in accordance with Kaplan-Meier, followed by a Mantel-Cox log-rank test. Furthermore, variance analysis (ANOVA) followed by a Student-Newman-Keuls test were employed. Null hypotheses were rejected at p<0.05.

WKY rats [2] = experiment: Histomorphological examination of organs (heart, kidneys, skeletal muscles, eyes, liver); assay type: in vivo, rat; conditions: for age-related histomorphological organ changes (connective tissue in heart muscle, muscular dystrophy, tubulointerstitial kidney damage, retina atrophy): life-long treatment, WKY rats
Excerpt: The effect of a life-long treatment of young normotensive Wistar-Kyoto rats (WKY rats) with the sodium-hydrogen exchanger (“NHE”) inhibitor cariporide was investigated. In addition to the primary end point, the lifespan, surrogate parameters were studied and measured, for example the hypertrophy of the left ventricle of the heart, heart function, metabolism and endothelial function. In addition, organs, such as heart, kidneys, skeletal muscles and eyes, were examined histomorphologically. In accordance with the method described by Langendorff, the hearts were perfused with an oxygen-saturated (95% O2, […]), non-circulating Krebs-Henseleit solution of the following composition (mmol/l): NaCl, 118; KCl, 4.7; CaCl2, 2.5; MgSO4, 1.6; NaHCO3, 24.9; KH2PO4, 1.2; glucose, 5.5; Na-pyruvate, 2.0, using a perfusion pressure of 60 mm Hg. The pressure in the left ventricle and the pulse frequency of the heart were measured using a balloon catheter. The coronary blood flow was determined using an electromagnetic flow gage. After a washing phase of 5 minutes, 1 ml of the coronary effluent was taken off for measuring the lactate concentrations and the lactate dehydrogenase and creatine kinase activities. The weights of the entire heart and the weights of the left and the right ventricle were then determined. The left ventricle was fixed in 10% strength neutral buffered formalin solution and embedded in paraffin for light-microscopic examination.

[3] = system: isolated thoracic aorta of WKY rats; experiment: Vessel function on isolated rings of the thoracic aorta: endothelium-dependent relaxation by acetylcholine after KCl precontraction; assay type: in vivo, rat; conditions: KCl-precontracted aorta rings, 30-month-old rats
Experimental: The interim analysis was carried out after 80% of the placebo-treated animals had died; this was the case after 30 months. 10 animals of each group were selected at random and anesthetized (hexobarbital, 80 mg·kg^−1, i.p.). Blood samples were then taken, and the thoracic aortae and the hearts were prepared and biochemically and/or functionally examined (Linz et al., 1997). The aorta was introduced into Tyrode's solution and freed from the surrounding fatty tissue. Segments of 2 mm were then sliced into rings, and these rings were introduced in a temperature-controlled (37° C.) organ bath (10 ml) with Tyrode's solution (composition in mol/l: NaCl 136.9; NaHCO3 11.9; KCl 2.7; CaCl2 0.5; MgCl2 2.0; NaHPO4 0.4; glucose 5.5; pH=7.4), and 95% O2/5% CO2 was bubbled through the solution. Each ring was mounted vertically between two fine steel clamps. The upper clamp was connected to a force sensor. The force signal was recorded using a computer-assisted biosignal analyzer. The aorta rings were suspended using a passive tension of 4.9 mN. After an adaptation period of one hour, the rings were contracted using potassium chloride (20 mmol/l). After a plateau had been reached, increasing concentrations of acetylcholine of 10^−8, 10^−7, 10^−6 and 10^−5 mol/l were added to the bath, triggering an endothelium dependent relaxation.

WKY rats [4] = experiment: Interim analysis after 30 months: organ weights (heart, ventricles, kidneys, spleen); assay type: in vivo, rat
Experimental: (§1) The interim analysis was carried out after 80% of the placebo-treated animals had died; this was the case after 30 months. 10 animals of each group were selected at random and anesthetized (hexobarbital, 80 mg·kg^−1, i.p.). Blood samples were then taken, and the thoracic aortae and the hearts were prepared and biochemically and/or functionally examined (Linz et al., 1997). In accordance with the method described by Langendorff, the hearts were perfused with an oxygen-saturated (95% O2, […]), non-circulating Krebs-Henseleit solution of the following composition (mmol/l): NaCl, 118; KCl, 4.7; CaCl2, 2.5; MgSO4, 1.6; NaHCO3, 24.9; KH2PO4, 1.2; glucose, 5.5; Na-pyruvate, 2.0, using a perfusion pressure of 60 mm Hg. The pressure in the left ventricle and the pulse frequency of the heart were measured using a balloon catheter. The coronary blood flow was determined using an electromagnetic flow gage. After a washing phase of 5 minutes, 1 ml of the coronary effluent was taken off for measuring the lactate concentrations and the lactate dehydrogenase and creatine kinase activities. The weights of the entire heart and the weights of the left and the right ventricle were then determined. The left ventricle was fixed in 10% strength neutral buffered formalin solution and embedded in paraffin for light-microscopic examination.

[5] = system: isolated heart of WKY rats; experiment: Function and metabolism of the isolated heart (Langendorff) after 30 months of treatment; assay type: in vivo, rat; conditions: n = 10 per group
Experimental: as §1

## CCOC(=O)[C@H](CCc1ccccc1)N[C@@H](C)C(=O)N1[C@H](C(=O)O)C[C@@H]2CCC[C@@H]21 [ramipril]
Hypertensive rats
  effect on lifespan: life-prolonging effect

## CC(C)c1ccc(C(=O)N=C(N)N)cc1S(C)(=O)=O.CS(=O)(=O)O [Cariporide, cariporide]
[1]; 19 months
  Survival rate in percent: 100%
[1]; 20 months
  Survival rate in percent: 100%
[1]; 21 months
  Survival rate in percent: 100%
[1]; 22 months
  Survival rate in percent: 100%
[1]; 23 months
  Survival rate in percent: 97%
[1]; 24 months
  Survival rate in percent: 97%
[1]; 25 months
  Survival rate in percent: 97%
[1]; 26 months
  Survival rate in percent: 97%
[1]; 27 months
  Survival rate in percent: 97%
[1]; 28 months
  Survival rate in percent: 97%
[1]; 29 months
  Survival rate in percent: 92%
[1]; 30 months
  Survival rate in percent: 89%
[1]; 31 months
  Survival rate in percent: 80%
[1]; 32 months
  Survival rate in percent: 75%
[1]; 33 months
  Survival rate in percent: 67%
[1]; 34 months
  Survival rate in percent: 59%
[1]; 35 months
  Survival rate in percent: 49%
[1]; 36 months
  Survival rate in percent: 38%
[1]; 37 months
  Survival rate in percent: 28%
[1]; 38 months
  Survival rate in percent: 17%
[1]; 39 months
  Survival rate in percent: 10%
[1]; life-long treatment, 0.3% in feed, WKY rats, placebo 30 months
  maximum lifespan: 39 months
[1]; life-long treatment, WKY rats, listed as cariporide
  onset of age-related cancer: delayed onset; also recorded: delayed significantly
[1]; maximum lifespan versus placebo
  life extension: 30%
WKY rats [2]; compared with control animals
  histomorphology of the livers: unchanged
WKY rats [2]
  age-related histomorphological organ changes (connective tissue in heart muscle, muscular dystrophy, tubulointerstitial kidney damage, retina atrophy): drastically reduced
WKY rats [2]; listed as cariporide
  age-related histomorphological organ changes (connective tissue in heart muscle, muscular dystrophy, tubulointerstitial kidney damage, retina atrophy): reduced drastically or prevented completely
[3]; ACh 10^−5 mol/l
  Vessel function on the aorta (relaxation in %): 95 ± 10%
[3]; ACh 10^−6 mol/l
  Vessel function on the aorta (relaxation in %): 85 ± 8 %
[3]; ACh 10^−7 mol/l
  Vessel function on the aorta (relaxation in %): 50 ± 6 %
[3]; ACh 10^−8 mol/l
  Vessel function on the aorta (relaxation in %): 5 ± 2%
WKY rats [4]; n = 10/group
  Heart weight, Heart (total): 235 ± 10 mg/100 g of body weight
  Heart weight, Left ventricle: 193 ± 8 mg/100 g of body weight
  Heart weight, Right ventricle: 36 ± 2 mg/100 g of body weight
WKY rats [4]; versus placebo-treated animals
  age-related hypertrophy of the heart: prevented
[5]
  CF (coronary flow): 34.6 ± 0.7 mL/min/g
  CK (creatine kinase in the coronary effluent): 0.20 ± 0.02 mU/min/g heart wwt
  HR: 182 ± 7 beats/min
  LDH (lactate dehydrogenase in the coronary effluent): 0.42 ± 0.02 mU/min/g heart wwt
  LVP (pressure in the left ventricle): 111.5 ± 3.9 mm Hg
  Lactate in the coronary effluent: 2.5 ± 0.13 μmol/min/g heart wwt
  dP/dtmax (constriction rate of the left ventricle): 4432 ± 121 mm Hg/s
